Measured values taken from patent EP1972611A1, “ARYL DIHYDRO-NAPHTHALENE COMPOUNDS, THEIR PREPARATION AND THEIR USE AS AKT INHIBITOR FOR THE PREVENTION AND TREATMENT OF CANCER” (Central South University, priority 2005, dated 2007).
≈ marks a conversion by molar mass, not a printed value. Marks after values point to notes of the source that are not given here.

Legend:
[1] = tested on: MCF-7 cell; experiment: Inhibition of MCF-7 cell growth (MTT method); type: cell-based; conditions: Homo sapiens, MCF7, MCF-7 cells, 48 hours; for IC50: Calcusyn program
Method: (§1) Cell lines of COC1, SMMC-7721, MCF-7and HT-29 were purchased from Chinese storage center for typical culture. Cells were cultured in RPMI1640 with 10% FCS at 37°C and 5% of CO2. Cells at log phase were harvested for the experiment.
(§2) Cells growth inhibition was measured with MTT method. Cells suspension of 1.0-1.2×10^5/ml were prepare and transferred to 96 well plate, 180µl per well. After further incubation for 2 hours, 20µl of various reagents were added to each well. The cells were back to incubator for 48 hours, and followed with addition of MTT of 20µl (5mg/ml)to each will. Additional incubation 6 hours later, the plate was centrifuged at 1000 rpm for 5 minutes. After aspirating supernatant, 100µl DMSO were added to each well and the optical density were measured at 490nm. The cells inhibition (IR) is calculated as : IR(%)=[1-A(treated)/A(control)]×100% , where is A is optical density. The IR was analyzed using Calcusyn program to determine the IC50 of each drug

[2] = tested on: COC1 cell; experiment: Inhibition of COC1 cell growth measured by MTT method; type: cell-based; conditions: Homo sapiens, COC1 cells, 48 hours; for IC50: Calcusyn program
Method: as §1, §2

[3] = tested on: human ovarian tumor cells (CoC1); experiment: In vivo tumor treatment model: nude mice inoculated with CoC1 tumor cells, tumor volume; parameters: species or system Balb/c-nu mice; conditions: for Suppression rate of tumor growth (%): vs. control (NS); for Volume (mm^3): x±s, n=4
Method: Experimental Design: Human ovarian tumor cells (CoC1) were purchased from Chinese storage center for typical culture. Cells were cultured in RPMI1640 with 10% FCS. Sub-culture for every 2-3 days. Cells at log phase were harvested for the experiment. Approximately 2x10^6 CoC1 cells were injected subcutaneously into the back of the Balb/c-nu female nude mice at the age of 6-7 weeks. When tumors reached to ≥ 1000 mm^3 (about 30 days), mice bearing similar size tumors were divided into 2 groups: control (NS) and VB-2 treated group. Each group has 4 mice.
VB-2 was dissolved into DMSO and further diluted with normal saline. […] Treatment groups received drugs every other day until the termination of the experiment. All mice were sacrificed at day 20 after the first treatment. Tumor size was determined by three-dimensional measurements (mm) using a caliper. Only measurable tumors were used to calculate the mean tumor volume for each clone at each time point. Each point represents the mean of tumors ± SE. Statistical comparisons for tumor size in treated mice relative to control mice indicate: ** p < 0.01.

[4] = tested on: Akt; experiment: Inhibition of Akt activation (phosphorylation) in breast cancer cells, Western analysis; type: cell-based, human; conditions: MDA-MB-435 cells; for inhibition of Akt activation by suppressing its phosphorylation: 12 hours, 0, 0.5 µM, 4 µM, and 8 µM, Fig. 3; for levels of total non-phosphorylated Akt protein: Western analysis; for Akt phosphorylation: dose of 4 µM
Method: Experimental Design: MDA-MB-435 human breast cancer cells were cultured in the DMEM medium with 5% FCS. When cells reached approximately 50-60% confluence, cells were treated with VB-1 and VB-2 for 12 hours at the following doses: 0, 0.5 µM, 4 µM, and 8 µM. Control and treated cells are harvested and total protein was isolated, normalized, and 45 µg of total protein was subjected to Western analysis. The expression of phosphorylated Akt was determined by using a specific anti-phosphorylated Akt antibody and normalized for total Akt protein expression.

[5] = tested on: HT-29 cell; experiment: Inhibition of HT-29 cell growth (MTT method); type: cell-based; conditions: Homo sapiens, HT-29 cells, 48 hours
Method: as §1, §2

[6] = tested on: MDA-MB-435 human breast cancer cells; experiment: Growth inhibition of MDA-MB-435 cells measured with MTT method (example titled induction of apoptosis); type: cell-based; conditions: for cells growth (percentage of the control group): p value less than 0.005
Method: Experimental design: MDA-MB-435 human breast cancer cells were cultured in the DMEM medium with 5% FCS. Cells were treated with VB-1 at 2 µM, 4 µM and 10 µM for 3 days. Cells were collected from control and treated groups and measured with MTT method.

[7] = tested on: SMMC-7721 cell; experiment: Inhibition of SMMC-7721 cell growth measured by MTT method; type: cell-based; conditions: Homo sapiens, SMMC-7721 cells, 48 hours
Method: as §1, §2

**Q.** Which results are given for `COc1ccc(C2c3cc(OC)c(OC)cc3C=C(C=O)C2CO)cc1OC` (centres unmarked) [VB-6, 6-methoxy-4-(4-methoxy-3-methoxyphenyl)-3-hydroxymethyl-7-methoxy-3,4dihydro-2-naphthaldehyde]?
**A.** inhibition at 0.1 µg/mL [1]: 10.9%; inhibition at 0.3 µg/mL [1]: 19.9%; inhibition at 1 µg/mL [1]: 22.8%; inhibition at 3 µg/mL [1]: 41.2%; inhibition at 10 µg/mL [1]: 46.4%; IC50 [1]: 11.2 µg/mL (≈ 29 µM); inhibition at 0.5 µg/mL [2]: 37%; inhibition at 5 µg/mL [2]: 45.6%; inhibition at 50 µg/mL [2]: 57.1%; IC50 [2]: 11.1 µg/mL (≈ 28.8 µM)

**Q.** How did the inhibition at 0.1 µg/mL [1] turn out when `COc1cc([C@H]2c3c(ccc(O)c3OC)C=C(C=O)[C@@H]2CO)ccc1O` [VB-2, 6-hydroxy-4-(4-hydroxy-3-methoxyphenyl)-3-hydroxymethyl-5-methoxy-3,4-dlhydro(3R, 4S)-2-naphthaldehyde] was run?
**A.** 10.6%

**Q.** And the inhibition at 0.3 µg/mL [1]?
**A.** 15.8%

**Q.** And the inhibition at 1 µg/mL [1]?
**A.** 17.6%

**Q.** And the inhibition at 3 µg/mL [1]?
**A.** 26.4%

**Q.** And the inhibition at 10 µg/mL [1]?
**A.** 28.7%

**Q.** And the IC50 [1]?
**A.** 226 µg/mL (≈ 635 µM)

**Q.** And the “Suppression rate of tumor growth (%)” value ([3]; day 5, dosage 5 mg/kg, i.p. every other day)?
**A.** 7.8%

**Q.** And the “Suppression rate of tumor growth (%)” value ([3]; day 10, dosage 5 mg/kg, i.p. every other day)?
**A.** 66.5%

**Q.** What about the “Suppression rate of tumor growth (%)” value ([3]; day 15, dosage 5 mg/kg, i.p. every other day) of the same compound?
**A.** 64.5%

**Q.** What about the “Suppression rate of tumor growth (%)” value ([3]; day 20, dosage 5 mg/kg, i.p. every other day) of the same compound?
**A.** 55.7%

**Q.** And the “Volume (mm^3)” value ([3]; initial tumor volume before treatment, dosage 5 mg/kg)?
**A.** 1543±1466 mm^3

**Q.** And the “Volume (mm^3)” value ([3]; tumor volume at day 5, dosage 5 mg/kg, i.p. every other day)?
**A.** 2542±1718 mm^3

**Q.** What about the “Volume (mm^3)” value ([3]; tumor volume at day 10, dosage 5 mg/kg, i.p. every other day) of the same compound?
**A.** 2131±1207* mm^3

**Q.** What about the “Volume (mm^3)” value ([3]; tumor volume at day 15, dosage 5 mg/kg, i.p. every other day) of the same compound?
**A.** 3600±1755* mm^3

**Q.** What about the “Volume (mm^3)” value ([3]; tumor volume at day 20, dosage 5 mg/kg, i.p. every other day) of the same compound?
**A.** 4495±2087** mm^3

**Q.** What about the “inhibition of Akt activation by suppressing its phosphorylation” value [4] of the same compound?
**A.** dose-dependent inhibition

**Q.** What about the “levels of total non-phosphorylated Akt protein” value ([4]; 12 hours) of the same compound?
**A.** no effects

**Q.** And the Akt phosphorylation ([4]; 12 hours)?
**A.** significantly block

**Q.** And the inhibition at 0.5 µg/mL [2]?
**A.** 39.9%

**Q.** What about the inhibition at 5 µg/mL [2] of the same compound?
**A.** 34.1%

**Q.** What about the inhibition at 50 µg/mL [2] of the same compound?
**A.** 39.5%

**Q.** How did the inhibition at 0.5 µg/mL [2] turn out when `COc1cc([C@H]2c3cc(OC)c(OC)cc3C=C(C=O)[C@@H]2CO)ccc1O` [VB-7, 6,7-dimethoxy-4-(4-hydroxy-3-methoxyphenyl)-3-hydroxymethyl-3,4-dihydro (3R,4S) -2-naphthaldehyde] was run?
**A.** 14.3%

**Q.** And the inhibition at 5 µg/mL [2]?
**A.** 27.6%

**Q.** And the inhibition at 50 µg/mL [2]?
**A.** 50%

**Q.** What about the IC50 [2] of the same compound?
**A.** 53.2 µg/mL (≈ 144 µM)

**Q.** What does the source list for `COc1cc([C@H]2c3cc(O)c(OC)cc3C=C(C=O)[C@@H]2CO)ccc1O` [VB-1, 6-hydroxy-4-(4-hydroxy-3-methoxyphenyl)-3-hydroxymethyl-7-methoxy-3,4-dihydro-(3R, 4S)-2-naphthaldehyde]?
**A.** inhibition at 0.1 µg/mL [1]: 6.4%; inhibition at 0.3 µg/mL [1]: 9.1%; inhibition at 1 µg/mL [1]: 12.7%; inhibition at 3 µg/mL [1]: 13.8%; inhibition at 10 µg/mL [1]: 41.1%; IC50 [1]: 58 µg/mL (≈ 163 µM); inhibition at 1 µg/mL ([5]; 1.00 µg/ml): 22.1%; inhibition at 10 µg/mL ([5]; 10.00 µg/ml): 32.3%; inhibition of Akt activation by suppressing its phosphorylation [4]: dose-dependent inhibition; levels of total non-phosphorylated Akt protein ([4]; 12 hours): no effects; Akt phosphorylation ([4]; 12 hours): significantly block; Akt activation ([4]; 12 hours, dose of 8 µM): completely blocks; inhibition at 0.4 µg/mL ([2]; 0.4 µg/ml): 27.1%; inhibition at 0.5 µg/mL [2]: 42.7%; inhibition at 0.6 µg/mL ([2]; 0.6 µg/ml): 48.1%; inhibition at 0.8 µg/mL ([2]; 0.8 µg/ml): 65.9%; inhibition at 1 µg/mL ([2]; 1.0 µg/ml): 66.9%; IC50 [2]: 0.63 µg/mL (≈ 1.77 µM); cell inhibition ([6]; 2 µM, 4 µM and 10 µM for 3 days, Fig 4): dose dependent cell inhibition; cells growth (percentage of the control group) ([6]; 4 µM, 3 days): significantly less than the control group; cells growth (percentage of the control group) ([6]; 8 µM, 3 days): significantly less than the control group; inhibition at 10 µM ([6]; Homo sapiens, 72 h, 10 µM, 3 days): ~50%; inhibition at 1 µg/mL ([7]; 1.00 µg/ml): 20.1%; inhibition at 10 µg/mL ([7]; 10.00 µg/ml): 22.3%

**Q.** Which inhibition at 0.1 µg/mL [1] does the source give for `COc1cc([C@H]2c3cc(O)c(OC)cc3C=C(CO)[C@@H]2CO)ccc1O` [VB-4, 6-hydroxy-7-methoxy-4-(4-hydroxy-3-methoxyphenyl)-2,3-dihydroxymethyl-3,4-dihydro(3R, 4S)-2-hydroynaphthalene] here?
**A.** 19.7%

**Q.** And the inhibition at 0.3 µg/mL [1]?
**A.** 15.6%

**Q.** And the inhibition at 1 µg/mL [1]?
**A.** 12.3%

**Q.** What about the inhibition at 3 µg/mL [1] of the same compound?
**A.** 13.2%

**Q.** And the inhibition at 10 µg/mL [1]?
**A.** 24%

**Q.** What about the inhibition at 0.5 µg/mL [2] of the same compound?
**A.** 38.8%

**Q.** What about the inhibition at 5 µg/mL [2] of the same compound?
**A.** 40.2%

**Q.** What about the inhibition at 50 µg/mL [2] of the same compound?
**A.** 40.6%

**Q.** `COc1cc([C@H]2c3cc(O)c(OC)cc3C=C(C=O)[C@@H]2CO[C@@H]2O[C@H](CO)[C@@H](O)[C@H](O)[C@H]2O)ccc1O` [VB-3, 6-hydroxy-4-(4-hydroxy-3-methoxyphenyl)-3-glucosyloxymethyl-7-methoxy-3,4-dihydro-(3R, 4S)-2-naphthaldehyde] was tested. Which inhibition at 0.1 µg/mL [1] did it give?
**A.** 10.6%

**Q.** And the inhibition at 0.3 µg/mL [1]?
**A.** 11.3%

**Q.** And the inhibition at 1 µg/mL [1]?
**A.** 14%

**Q.** What about the inhibition at 3 µg/mL [1] of the same compound?
**A.** 18.5%

**Q.** And the inhibition at 10 µg/mL [1]?
**A.** 13.8%

**Q.** What about the IC50 [1] of the same compound?
**A.** 9260 µg/mL (≈ 17900 µM)

**Q.** Which inhibition at 0.1 µg/mL [1] does the source give for `COc1cc2c(cc1O)[C@H](c1ccc(O[C@@H]3O[C@H](C(=O)O)[C@@H](O)[C@H](O)[C@H]3O)c(OC)c1)[C@@H](CO)C(C=O)=C2` [VB-5, 6-hydroxy-3-hydroxymethyl-4-(3-methoxyphenyl)-7-methoxy-3,4-dihydro-2-naphthaldehyde-4'-O-β-D-glucopyranosiduronic acid] here?
**A.** 13.6%

**Q.** And the inhibition at 0.3 µg/mL [1]?
**A.** 22%

**Q.** What about the inhibition at 1 µg/mL [1] of the same compound?
**A.** 23.2%

**Q.** And the inhibition at 3 µg/mL [1]?
**A.** 13.6%

**Q.** And the inhibition at 10 µg/mL [1]?
**A.** 30.4%

**Q.** What about the IC50 [1] of the same compound?
**A.** 471 µg/mL (≈ 885 µM)

**Q.** And the inhibition at 0.5 µg/mL [2]?
**A.** 14.3%

**Q.** And the inhibition at 5 µg/mL [2]?
**A.** 28.7%

**Q.** What about the inhibition at 50 µg/mL [2] of the same compound?
**A.** 35.2%

**Q.** What about the IC50 [2] of the same compound?
**A.** 371 µg/mL (≈ 697 µM)
